Test: Sensory evaluation of Vermont drink containing the agent
Settings: ten panels
Procedure: Water was added to a mixture of 10 g of apple-cider vinegar (acetic acid: 4.8%), 3 g of honey, 7 g of fructose-glucose liquid sugar mixed with sugar, 0.02 g of citric acid, 0.002 g of trisodium citrate, and 0.1 g of a Vermont flavor (manufactured by T. Hasegawa Co., Ltd.) to give a total amount of 100 mL. To the resulting mixture was added (Z,Z)-4,7-tridecadienal as the acid taste and/or acid smell-reducing agent of the present invention in concentrations shown in the following Table 1 to give Vermont drinks containing the agent.
Sensory evaluation of each drink was carried out by ten panels. […] The piercing aroma characteristic to aldehydes is a characteristic aroma common to every aldehyde and refers to an irritant off-smell giving an image of deteriorated oils and fats, soap, metals, Houttuynia cordata, etc. The judgment of smell was performed by comparing the effects at different concentrations of the acid taste and/or acid smell-reducing agent, and a concentration giving the highest acid taste/acid smell quality was selected. […]

CCCCC/C=C/C/C=C\C=C\C=O [(E,Z,E)-2,4,7-tridecatrienal]
8: A: number of panels, acid taste/acid smell extreme and cause irritation (0.2 ppt) | X: number of panels, acid taste reduced but piercing odor characteristic to aldehydes unpleasant (50 ppb) | N: number of panels, irritation of acid reduced to give a mild acid taste (100 ppt)
6: A: number of panels, acid taste/acid smell extreme and cause irritation (0.5 ppt) | B: number of panels, acid taste/acid smell slightly strong and slightly cause irritation (1 ppt) | N: number of panels, irritation of acid reduced to give a mild acid taste (5 ppt)
4: N: number of panels, irritation of acid reduced to give a mild acid taste (1 ppb) | X: number of panels, acid taste reduced but piercing odor characteristic to aldehydes unpleasant (1 ppb) | Flavor judgment: number of panels who judged acid taste/acid smell quality the highest (5 ppt) | Flavor judgment: number of panels who judged acid taste/acid smell quality the highest (20 ppt) | N: number of panels, irritation of acid reduced to give a mild acid taste (500 ppt)
0: B: number of panels, acid taste/acid smell slightly strong and slightly cause irritation (0.005 ppt) | C: number of panels, acid taste/acid smell slightly unpleasant (0.005 ppt) | Flavor judgment: number of panels who judged acid taste/acid smell quality the highest (0.005 ppt) | N: number of panels, irritation of acid reduced to give a mild acid taste (0.005 ppt) | X: number of panels, acid taste reduced but piercing odor characteristic to aldehydes unpleasant (0.005 ppt) | B: number of panels, acid taste/acid smell slightly strong and slightly cause irritation (0.02 ppt) | C: number of panels, acid taste/acid smell slightly unpleasant (0.02 ppt) | Flavor judgment: number of panels who judged acid taste/acid smell quality the highest (0.02 ppt) | N: number of panels, irritation of acid reduced to give a mild acid taste (0.02 ppt) | X: number of panels, acid taste reduced but piercing odor characteristic to aldehydes unpleasant (0.02 ppt) | B: number of panels, acid taste/acid smell slightly strong and slightly cause irritation (0.1 ppt) | C: number of panels, acid taste/acid smell slightly unpleasant (0.1 ppt) | Flavor judgment: number of panels who judged acid taste/acid smell quality the highest (0.1 ppt) | N: number of panels, irritation of acid reduced to give a mild acid taste (0.1 ppt) | X: number of panels, acid taste reduced but piercing odor characteristic to aldehydes unpleasant (0.1 ppt) | C: number of panels, acid taste/acid smell slightly unpleasant (0.2 ppt) | Flavor judgment: number of panels who judged acid taste/acid smell quality the highest (0.2 ppt) | N: number of panels, irritation of acid reduced to give a mild acid taste (0.2 ppt) | X: number of panels, acid taste reduced but piercing odor characteristic to aldehydes unpleasant (0.2 ppt) | Flavor judgment: number of panels who judged acid taste/acid smell quality the highest (0.5 ppt) | N: number of panels, irritation of acid reduced to give a mild acid taste (0.5 ppt) | X: number of panels, acid taste reduced but piercing odor characteristic to aldehydes unpleasant (0.5 ppt) | A: number of panels, acid taste/acid smell extreme and cause irritation (1 ppb) | B: number of panels, acid taste/acid smell slightly strong and slightly cause irritation (1 ppb) | Flavor judgment: number of panels who judged acid taste/acid smell quality the highest (1 ppb) | A: number of panels, acid taste/acid smell extreme and cause irritation (1 ppt) | Flavor judgment: number of panels who judged acid taste/acid smell quality the highest (1 ppt) | X: number of panels, acid taste reduced but piercing odor characteristic to aldehydes unpleasant (1 ppt) | A: number of panels, acid taste/acid smell extreme and cause irritation (5 ppt) | X: number of panels, acid taste reduced but piercing odor characteristic to aldehydes unpleasant (5 ppt) | A: number of panels, acid taste/acid smell extreme and cause irritation (10 ppb) | B: number of panels, acid taste/acid smell slightly strong and slightly cause irritation (10 ppb) | Flavor judgment: number of panels who judged acid taste/acid smell quality the highest (10 ppb) | A: number of panels, acid taste/acid smell extreme and cause irritation (20 ppt) | B: number of panels, acid taste/acid smell slightly strong and slightly cause irritation (20 ppt) | X: number of panels, acid taste reduced but piercing odor characteristic to aldehydes unpleasant (20 ppt) | A: number of panels, acid taste/acid smell extreme and cause irritation (50 ppb) | B: number of panels, acid taste/acid smell slightly strong and slightly cause irritation (50 ppb) | C: number of panels, acid taste/acid smell slightly unpleasant (50 ppb) | Flavor judgment: number of panels who judged acid taste/acid smell quality the highest (50 ppb) | A: number of panels, acid taste/acid smell extreme and cause irritation (100 ppt) | B: number of panels, acid taste/acid smell slightly strong and slightly cause irritation (100 ppt) | X: number of panels, acid taste reduced but piercing odor characteristic to aldehydes unpleasant (100 ppt) | A: number of panels, acid taste/acid smell extreme and cause irritation (500 ppt) | B: number of panels, acid taste/acid smell slightly strong and slightly cause irritation (500 ppt) | Flavor judgment: number of panels who judged acid taste/acid smell quality the highest (500 ppt)
7: X: number of panels, acid taste reduced but piercing odor characteristic to aldehydes unpleasant (10 ppb) | N: number of panels, irritation of acid reduced to give a mild acid taste (20 ppt)
10: A: number of panels, acid taste/acid smell extreme and cause irritation (0.005 ppt) | A: number of panels, acid taste/acid smell extreme and cause irritation (0.02 ppt) | A: number of panels, acid taste/acid smell extreme and cause irritation (0.1 ppt)
2: B: number of panels, acid taste/acid smell slightly strong and slightly cause irritation (0.2 ppt) | B: number of panels, acid taste/acid smell slightly strong and slightly cause irritation (0.5 ppt) | C: number of panels, acid taste/acid smell slightly unpleasant (0.5 ppt) | C: number of panels, acid taste/acid smell slightly unpleasant (1 ppb) | N: number of panels, irritation of acid reduced to give a mild acid taste (10 ppb) | N: number of panels, irritation of acid reduced to give a mild acid taste (50 ppb) | C: number of panels, acid taste/acid smell slightly unpleasant (100 ppt) | Flavor judgment: number of panels who judged acid taste/acid smell quality the highest (100 ppt)
1: N: number of panels, irritation of acid reduced to give a mild acid taste (1 ppt) | B: number of panels, acid taste/acid smell slightly strong and slightly cause irritation (5 ppt) | C: number of panels, acid taste/acid smell slightly unpleasant (10 ppb)
3: C: number of panels, acid taste/acid smell slightly unpleasant (1 ppt) | C: number of panels, acid taste/acid smell slightly unpleasant (5 ppt) | C: number of panels, acid taste/acid smell slightly unpleasant (20 ppt) | C: number of panels, acid taste/acid smell slightly unpleasant (500 ppt) | X: number of panels, acid taste reduced but piercing odor characteristic to aldehydes unpleasant (500 ppt)

— patent US20140120232A1, “ACID TASTE/ACID SMELL-REDUCING AGENT” (T. HASEGAWA CO., LTD., priority 2011, published 2014)
